This passage reports melting point and IC50 results from article PMC11054282, “Structural Investigations on 2-Amidobenzimidazole Derivatives as New Inhibitors of Protein Kinase CK1 Delta” (Pharmaceuticals, 2024).

“And” between values parts separate entries of the source, which are not always exact repeats. Equal entries are not always repeated. Where two headings read alike, the source gives them in different places. Some results are limits rather than exact numbers.

One data set addresses T1, truncated CK1δ (Homo sapiens, UniProt P48730).
T1 construct: truncated CK1δ, recombinant human, GST-tagged, aa 1-294, Merck Millipore; GST; purchased Merck Millipore, Merck KGaA, Darmstadt, Germany
T1 sequence (P48730 1-294): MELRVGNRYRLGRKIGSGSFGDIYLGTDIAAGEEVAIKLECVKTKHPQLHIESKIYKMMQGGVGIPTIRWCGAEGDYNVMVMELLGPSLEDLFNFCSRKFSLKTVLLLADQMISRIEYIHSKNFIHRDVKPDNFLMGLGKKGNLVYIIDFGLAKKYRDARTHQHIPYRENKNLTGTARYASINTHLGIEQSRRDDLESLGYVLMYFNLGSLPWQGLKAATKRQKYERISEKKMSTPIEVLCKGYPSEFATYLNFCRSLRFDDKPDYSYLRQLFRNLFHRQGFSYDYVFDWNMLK
As to the kind of experiment: CK1δ luminescent kinase assay (Kinase Glo kit). It counts as biochemical. The settings on record: truncated recombinant human CK1δ (aa 1-294), casein substrate, 2 μM ATP; mean ± SE of three independent experiments in duplicate. As for the experimental part:
The newly synthesized derivatives 1–32 were tested on truncated CK1δ using the luminescent kinase assay Kinase Glo® KIT (Promega Italy S.r.l., Milan, Italy), and the results are reported in Table 1 and Table 2. Derivatives were tested at a fixed dose of 40 μM; then, those showing a residual kinase activity percentage lower than 50% were tested at 10 μM.
The inhibitory activity of synthesized compounds on CK1δ has been carried out following a procedure for a luminescence-based assay (KinaseGlo® kit, Promega Italy Srl, Milan, Italy) already reported in the literature. Luminescent assays were performed in white 96-well plates in a 40 μL final volume. The buffer used is a milliq water solution of 50 mM HEPES (pH 7.5), 1 mM EDTA, 1 mM EGTA, and 15 mM MgCl2. In a typical assay, 10 μL of inhibitor solution (desired concentrations were obtained by diluting in buffer a starting 10 mM solution in DMSO) and 10 μL of enzyme solution (truncated CK1δ, recombinant human, GST-tagged, aa 1-294, Merck Millipore, Merck KGaA, Darmstadt, Germany) were added to the well, followed by 20 μL of assay buffer containing casein substrate (casein solution from bovine milk, 5% in water, Sigma-Aldrich, Merck KGaA, Darmstadt, Germany) and ATP, at a final concentration of 0.05% and 2 μM, respectively. The final enzyme concentration was 6.5 nM. […] After 60 min of incubation at 30 °C, the enzymatic reactions were stopped with the addition of 40 μL of KinaseGlo reagent (Promega Italy Srl, Milan, Italy). The luminescence signal (relative light unit, RLU) was recorded after 10 min at 25 °C using a Tecan Infinite M100. […] IC50 values were evaluated using ten different inhibitor concentrations ranging from 100 to 0.026 μM. Data were analyzed using Excel and GraphPad Prism software (version 8.0).
(In general: Kinase-Glo measures the ATP left after a reaction by luminescence.)

In the next data set the test system is CK1ε. The conditions noted are these: cited from earlier work.
A further data set relates to CK1δ. The settings on record: cited from earlier work.

Regarding `NS(=O)(=O)c1ccc2[nH]c(NC(=O)Cc3cc[nH]n3)nc2c1` [Compound 25, 2-(1H-Pyrazol-3(5)-yl)-N-(5(6)-sulfamoyl-1H-benzimidazol-2-yl)acetamide], the melting point (as a rule, the temperature, or range, at which the solid turns liquid) lay in the range of 285 to 287 °C. Besides, on truncated CK1δ, the IC50 (as a rule, the concentration at which inhibition is half-maximal) is more than 40000 nM.
For the molecule `CNS(=O)(=O)c1ccc2[nH]c(NC(=O)Cc3cc[nH]n3)nc2c1` [Compound 26], the melting point lay within 238 to 240 °C. Further, the IC50 on truncated CK1δ was < 15000 nM and 10700 nM.
Turning to `O=C(Cc1cc[nH]n1)Nc1nc2cc(NC(=O)c3ccccc3)ccc2[nH]1` [Compound 28, N-(2-(2-(1H-Pyrazol-3-yl)acetamido)-1H-benzimidazol-3(5)-yl)benzamide], the melting point was 292 to 293 °C. Moreover, on truncated CK1δ, the IC50 was more than 40000 nM.
For the molecule `O=C(Cc1cc[nH]n1)Nc1nc2c(NC(=O)c3ccccc3)cccc2[nH]1` [Compound 29, N-(2-(2-(1H-Pyrazol-3-yl)acetamido)-1H-benzimidazol-4(7)-yl)benzamide], the melting point was 280 °C (dec.). For the same molecule, the IC50 at truncated CK1δ was more than 40000 nM.
In turn, `O=C(Cc1cc[nH]n1)Nc1nc2cc(-n3cncn3)ccc2[nH]1` [Compound 30, N-(5(6)-(1H-1,2,4-triazol-1-yl)-1H-benzimidazol-2-yl)(1H-pyrazol-3(5)-yl)acetamide] returned a melting point of 269 to 271 °C. In addition, the concentration for half-maximal inhibition (IC50) at truncated CK1δ was < 15000 nM and 2590 nM.
As for `O=C(Cc1cc[nH]n1)Nc1nc2cc(-c3nnn[nH]3)ccc2[nH]1` [Compound 31, N-(5(6)-(1H-tetrazol-5-yl)-1H-benzimidazol-2-yl)(1H-pyrazol-3(5)-yl)acetamide], the melting point is more than 300 °C. Moreover, on truncated CK1δ, the IC50 was < 15000 nM and 1540 nM.
As for `COc1ccc(/C=C/C(=O)Nc2cc(-c3nc(SC)[nH]c3-c3ccc(F)cc3)ccn2)c(OC)c1` [III], the IC50 in the data set with CK1ε (compound III, Figure 1) is 73 nM; in the data set with CK1δ (compound III, Figure 1, read-out: CK1δ IC50), 4 nM.
For the molecule `COc1ccc(/C=C/C(=O)Nc2cc(-c3c(-c4ccc(F)cc4)noc3C(C)C)ccn2)c(OC)c1` [II], the IC50 is 2520 nM in the data set with CK1ε (compound II, Figure 1) and 33 nM with CK1δ (compound II, Figure 1, read-out: CK1δ IC50).
Turning to `Fc1cccc(-n2cnc3c(NCc4nc5ccc(Cl)cc5[nH]4)nc(N4CCNCC4)nc32)c1` [IV], the IC50 with CK1δ (compound IV (SR 2890), Figure 1, read-out: CK1δ IC50) was 5 nM.
For `Nc1nccc(-c2c(-c3ccc(F)cc3)ncn2C2CCCCC2)n1` [PF-670462], the IC50 in the data set on CK1ε (PF-670462) is […]; in the data set on CK1δ (PF-670462, read-out: CK1δ IC50) it was […]; in the data set on CK1δ (PF-670462 as positive control, value in the method section, read-out: IC50), […].
`O=C(Nc1nc2cc(C(F)(F)F)ccc2[nH]1)c1csc(NC(=O)c2ccccc2OC(F)(F)F)n1` [V]: the IC50 in the data set on CK1δ (Bischof-5, Figure 2, read-out: CK1δ IC50) is […].
